In PMC11899342, “Novel Triazeneindole Antibiotics: Synthesis and Hit-to-Lead Optimization” (International Journal of Molecular Sciences, 2025):

System: MRSA clinical isolates
Experiment: Antibiotic susceptibility profile of MRSA clinical isolates (EUCAST breakpoints)
Format: cell-based, Staphylococcus aureus
Text: Clinical MRSA isolates with multidrug resistance were obtained from the collection of the Research Institute of Antimicrobial Chemotherapy, Smolensk State Medical Academy.

CCCCCCCCCC(=O)N[C@@H](Cc1c[nH]c2ccccc12)C(=O)N[C@H](CC(N)=O)C(=O)N[C@@H](CC(=O)O)C(=O)N[C@@H]1C(=O)NCC(=O)N[C@@H](CCCN)C(=O)N[C@@H](CC(=O)O)C(=O)N[C@H](C)C(=O)N[C@@H](CC(=O)O)C(=O)NCC(=O)N[C@H](CO)C(=O)N[C@@H]([C@H](C)CC(=O)O)C(=O)N[C@@H](CC(=O)c2ccccc2N)C(=O)O[C@@H]1C [Daptomycine]
Drug sensibility profile (MRSA strain 1): S | Drug sensibility profile (MRSA strain 2): S | Drug sensibility profile (MRSA strain 3): S | Drug sensibility profile (MRSA strain 4): S | Drug sensibility profile (MRSA strain 5): S | Drug sensibility profile (MRSA strain 6): S | Drug sensibility profile (MRSA strain 7): S | Drug sensibility profile (MRSA strain 8): S | Drug sensibility profile (MRSA strain 9): S | Drug sensibility profile (MRSA strain 10): S | Drug sensibility profile (MRSA strain 12): S | Drug sensibility profile (MRSA strain 13): S | Drug sensibility profile (MRSA strain 14): S | Drug sensibility profile (MRSA strain 15): S | Drug sensibility profile (MRSA strain 16): S | Drug sensibility profile (MRSA strain 17): S | Drug sensibility profile (MRSA strain 18): S | Drug sensibility profile (MRSA strain 21): S | Drug sensibility profile (MRSA strain 23): S | Drug sensibility profile (MRSA strain 24): S | Drug sensibility profile (MRSA strain 30): S | Drug sensibility profile (MRSA strain 31): S | Drug sensibility profile (MRSA strain 34): S | Drug sensibility profile (MRSA strain 35): S | Drug sensibility profile (MRSA strain 40): S | Drug sensibility profile (MRSA strain 43): S | Drug sensibility profile (MRSA strain 46): S | Drug sensibility profile (MRSA strain 48): S | Drug sensibility profile (MRSA strain 49): S | Drug sensibility profile (MRSA strain 50): S

CCCCCCCCCCNCCN[C@@]1(C)C[C@H](O[C@H]2[C@H](Oc3c4cc5cc3Oc3ccc(cc3Cl)[C@@H](O)[C@@H](NC(=O)[C@@H](CC(C)C)NC)C(=O)N[C@@H](CC(N)=O)C(=O)N[C@H]5C(=O)N[C@H]3C(=O)N[C@H](C(=O)N[C@H](C(=O)O)c5cc(O)c(CNCP(=O)(O)O)c(O)c5-c5cc3ccc5O)[C@H](O)c3ccc(c(Cl)c3)O4)O[C@H](CO)[C@@H](O)[C@@H]2O)O[C@@H](C)[C@H]1O [Telavancin]
Drug sensibility profile (MRSA strain 25): S | Drug sensibility profile (MRSA strain 26): S | Drug sensibility profile (MRSA strain 27): S | Drug sensibility profile (MRSA strain 28): S | Drug sensibility profile (MRSA strain 29): S | Drug sensibility profile (MRSA strain 36): S | Drug sensibility profile (MRSA strain 41): S | Drug sensibility profile (MRSA strain 42): S | Drug sensibility profile (MRSA strain 44): S | Drug sensibility profile (MRSA strain 45): S | Drug sensibility profile (MRSA strain 51): S

CN(C)c1cc(NC(=O)CNC(C)(C)C)c(O)c2c1C[C@H]1C[C@H]3[C@H](N(C)C)C(O)=C(C(N)=O)C(=O)[C@@]3(O)C(O)=C1C2=O [Tigecycline]
Drug sensibility profile (MRSA strain 1): S | Drug sensibility profile (MRSA strain 2): R | Drug sensibility profile (MRSA strain 3): S | Drug sensibility profile (MRSA strain 4): S | Drug sensibility profile (MRSA strain 5): S | Drug sensibility profile (MRSA strain 6): S | Drug sensibility profile (MRSA strain 7): S | Drug sensibility profile (MRSA strain 8): R | Drug sensibility profile (MRSA strain 9): R | Drug sensibility profile (MRSA strain 10): S | Drug sensibility profile (MRSA strain 12): R | Drug sensibility profile (MRSA strain 13): R | Drug sensibility profile (MRSA strain 14): S | Drug sensibility profile (MRSA strain 15): S | Drug sensibility profile (MRSA strain 16): S | Drug sensibility profile (MRSA strain 17): R | Drug sensibility profile (MRSA strain 18): S | Drug sensibility profile (MRSA strain 21): S | Drug sensibility profile (MRSA strain 23): S | Drug sensibility profile (MRSA strain 24): S | Drug sensibility profile (MRSA strain 25): S | Drug sensibility profile (MRSA strain 26): S | Drug sensibility profile (MRSA strain 27): S | Drug sensibility profile (MRSA strain 28): S | Drug sensibility profile (MRSA strain 29): S | Drug sensibility profile (MRSA strain 30): S | Drug sensibility profile (MRSA strain 31): S | Drug sensibility profile (MRSA strain 34): S | Drug sensibility profile (MRSA strain 35): S | Drug sensibility profile (MRSA strain 36): S | Drug sensibility profile (MRSA strain 40): S | Drug sensibility profile (MRSA strain 41): S | Drug sensibility profile (MRSA strain 42): S | Drug sensibility profile (MRSA strain 43): S | Drug sensibility profile (MRSA strain 44): S | Drug sensibility profile (MRSA strain 45): S | Drug sensibility profile (MRSA strain 46): S | Drug sensibility profile (MRSA strain 48): S | Drug sensibility profile (MRSA strain 49): S | Drug sensibility profile (MRSA strain 50): S | Drug sensibility profile (MRSA strain 51): S

CCC[C@@H]1C[C@@H](C(=O)N[C@@H]([C@H]2O[C@H](SC)[C@H](O)[C@@H](O)[C@H]2O)[C@H](C)Cl)N(C)C1 [CLIND, clindamycin]
Drug sensibility profile (MRSA strain 1): S | Drug sensibility profile (MRSA strain 2): R | Drug sensibility profile (MRSA strain 3): S | Drug sensibility profile (MRSA strain 4): S | Drug sensibility profile (MRSA strain 5): R | Drug sensibility profile (MRSA strain 6): R | Drug sensibility profile (MRSA strain 7): R | Drug sensibility profile (MRSA strain 8): S | Drug sensibility profile (MRSA strain 9): S | Drug sensibility profile (MRSA strain 10): S | Drug sensibility profile (MRSA strain 12): R | Drug sensibility profile (MRSA strain 13): S | Drug sensibility profile (MRSA strain 14): R | Drug sensibility profile (MRSA strain 15): S | Drug sensibility profile (MRSA strain 16): R | Drug sensibility profile (MRSA strain 17): S | Drug sensibility profile (MRSA strain 18): S | Drug sensibility profile (MRSA strain 21): R | Drug sensibility profile (MRSA strain 23): R | Drug sensibility profile (MRSA strain 24): S | Drug sensibility profile (MRSA strain 25): S | Drug sensibility profile (MRSA strain 26): S S S S S S S | Drug sensibility profile (MRSA strain 27): S | Drug sensibility profile (MRSA strain 28): S | Drug sensibility profile (MRSA strain 29): S | Drug sensibility profile (MRSA strain 30): S | Drug sensibility profile (MRSA strain 31): R | Drug sensibility profile (MRSA strain 34): S | Drug sensibility profile (MRSA strain 35): S | Drug sensibility profile (MRSA strain 36): S S S S S S S | Drug sensibility profile (MRSA strain 40): R | Drug sensibility profile (MRSA strain 41): S | Drug sensibility profile (MRSA strain 42): S | Drug sensibility profile (MRSA strain 43): S | Drug sensibility profile (MRSA strain 44): S | Drug sensibility profile (MRSA strain 45): R | Drug sensibility profile (MRSA strain 46): S | Drug sensibility profile (MRSA strain 48): R | Drug sensibility profile (MRSA strain 49): S | Drug sensibility profile (MRSA strain 50): R | Drug sensibility profile (MRSA strain 51): S

CN(C)[C@@H]1C(O)=C(C(N)=O)C(=O)[C@@]2(O)C(O)=C3C(=O)c4c(O)cccc4[C@@](C)(O)[C@H]3C[C@@H]12 [TET, tetracycline]
Drug sensibility profile (MRSA strain 1): R | Drug sensibility profile (MRSA strain 2): R | Drug sensibility profile (MRSA strain 3): S | Drug sensibility profile (MRSA strain 4): S | Drug sensibility profile (MRSA strain 5): S | Drug sensibility profile (MRSA strain 6): S | Drug sensibility profile (MRSA strain 7): R | Drug sensibility profile (MRSA strain 8): R | Drug sensibility profile (MRSA strain 9): R | Drug sensibility profile (MRSA strain 10): S | Drug sensibility profile (MRSA strain 12): R | Drug sensibility profile (MRSA strain 13): R | Drug sensibility profile (MRSA strain 14): S | Drug sensibility profile (MRSA strain 15): R | Drug sensibility profile (MRSA strain 16): S | Drug sensibility profile (MRSA strain 17): S | Drug sensibility profile (MRSA strain 18): S | Drug sensibility profile (MRSA strain 21): R | Drug sensibility profile (MRSA strain 23): S | Drug sensibility profile (MRSA strain 24): S | Drug sensibility profile (MRSA strain 25): S | Drug sensibility profile (MRSA strain 26): S S S S S S S | Drug sensibility profile (MRSA strain 27): R | Drug sensibility profile (MRSA strain 28): R | Drug sensibility profile (MRSA strain 29): S | Drug sensibility profile (MRSA strain 30): S | Drug sensibility profile (MRSA strain 31): S | Drug sensibility profile (MRSA strain 34): S | Drug sensibility profile (MRSA strain 35): S | Drug sensibility profile (MRSA strain 36): S S S S S S S | Drug sensibility profile (MRSA strain 40): R | Drug sensibility profile (MRSA strain 41): R | Drug sensibility profile (MRSA strain 42): S | Drug sensibility profile (MRSA strain 43): S | Drug sensibility profile (MRSA strain 44): S | Drug sensibility profile (MRSA strain 45): I | Drug sensibility profile (MRSA strain 46): S | Drug sensibility profile (MRSA strain 48): R | Drug sensibility profile (MRSA strain 49): R | Drug sensibility profile (MRSA strain 50): R | Drug sensibility profile (MRSA strain 51): S
